Results on 14 compounds are retold here after patent EP4741389A1, “KAT6 INHIBITOR” (Shanghai Qilu Pharmaceutical Research and Development …, priority 2023, dated 2025).

The subject of experiment [1] is ZR-75-1 cells. The experiment is described as follows: ZR-75-1 cell proliferation assay (CellTiter-Glo). The note with it: Homo sapiens, ZR-75-1, 240 h, total culture period of 10 days, read-out: ZR-75-1 Proliferation Inhibition IC50. The format is cell-based. The method, then:
II. ZR-75-1 cell proliferation assay
• 1. ZR-75-1 cells were seeded in 96-well plates and cultured overnight in an incubator at 37°C & 5% CO2. • 2. Compounds were diluted using culture medium and added to the 96-well plates. The plates were placed back into the incubator for continued culture. Every 5 days, the cells were trypsinized, counted, and re-seeded. After the cells had fully adhered, compounds were added again for incubation, for a total culture period of 10 days. • 3. After the culture period, 60 µL of CellTiter-Glo reagent (Promega, G7573) was added to each well. The plates were protected from light and shaken for 2 minutes to lyse the cells, followed by further incubation at room temperature, protected from light, for 30 minutes. • 4. Luminescence signals were read using a BMG PHERAstar FSX. IC50 values were calculated by nonlinear regression using a four-parameter logistic equation in GraphPad Prism 8 software.

In experiment [2] the target is T1, KAT6B (Homo sapiens, UniProt Q8WYB5).
T1 construct: purchased Active Motif 81224
T1 sequence (Q8WYB5 whole entry): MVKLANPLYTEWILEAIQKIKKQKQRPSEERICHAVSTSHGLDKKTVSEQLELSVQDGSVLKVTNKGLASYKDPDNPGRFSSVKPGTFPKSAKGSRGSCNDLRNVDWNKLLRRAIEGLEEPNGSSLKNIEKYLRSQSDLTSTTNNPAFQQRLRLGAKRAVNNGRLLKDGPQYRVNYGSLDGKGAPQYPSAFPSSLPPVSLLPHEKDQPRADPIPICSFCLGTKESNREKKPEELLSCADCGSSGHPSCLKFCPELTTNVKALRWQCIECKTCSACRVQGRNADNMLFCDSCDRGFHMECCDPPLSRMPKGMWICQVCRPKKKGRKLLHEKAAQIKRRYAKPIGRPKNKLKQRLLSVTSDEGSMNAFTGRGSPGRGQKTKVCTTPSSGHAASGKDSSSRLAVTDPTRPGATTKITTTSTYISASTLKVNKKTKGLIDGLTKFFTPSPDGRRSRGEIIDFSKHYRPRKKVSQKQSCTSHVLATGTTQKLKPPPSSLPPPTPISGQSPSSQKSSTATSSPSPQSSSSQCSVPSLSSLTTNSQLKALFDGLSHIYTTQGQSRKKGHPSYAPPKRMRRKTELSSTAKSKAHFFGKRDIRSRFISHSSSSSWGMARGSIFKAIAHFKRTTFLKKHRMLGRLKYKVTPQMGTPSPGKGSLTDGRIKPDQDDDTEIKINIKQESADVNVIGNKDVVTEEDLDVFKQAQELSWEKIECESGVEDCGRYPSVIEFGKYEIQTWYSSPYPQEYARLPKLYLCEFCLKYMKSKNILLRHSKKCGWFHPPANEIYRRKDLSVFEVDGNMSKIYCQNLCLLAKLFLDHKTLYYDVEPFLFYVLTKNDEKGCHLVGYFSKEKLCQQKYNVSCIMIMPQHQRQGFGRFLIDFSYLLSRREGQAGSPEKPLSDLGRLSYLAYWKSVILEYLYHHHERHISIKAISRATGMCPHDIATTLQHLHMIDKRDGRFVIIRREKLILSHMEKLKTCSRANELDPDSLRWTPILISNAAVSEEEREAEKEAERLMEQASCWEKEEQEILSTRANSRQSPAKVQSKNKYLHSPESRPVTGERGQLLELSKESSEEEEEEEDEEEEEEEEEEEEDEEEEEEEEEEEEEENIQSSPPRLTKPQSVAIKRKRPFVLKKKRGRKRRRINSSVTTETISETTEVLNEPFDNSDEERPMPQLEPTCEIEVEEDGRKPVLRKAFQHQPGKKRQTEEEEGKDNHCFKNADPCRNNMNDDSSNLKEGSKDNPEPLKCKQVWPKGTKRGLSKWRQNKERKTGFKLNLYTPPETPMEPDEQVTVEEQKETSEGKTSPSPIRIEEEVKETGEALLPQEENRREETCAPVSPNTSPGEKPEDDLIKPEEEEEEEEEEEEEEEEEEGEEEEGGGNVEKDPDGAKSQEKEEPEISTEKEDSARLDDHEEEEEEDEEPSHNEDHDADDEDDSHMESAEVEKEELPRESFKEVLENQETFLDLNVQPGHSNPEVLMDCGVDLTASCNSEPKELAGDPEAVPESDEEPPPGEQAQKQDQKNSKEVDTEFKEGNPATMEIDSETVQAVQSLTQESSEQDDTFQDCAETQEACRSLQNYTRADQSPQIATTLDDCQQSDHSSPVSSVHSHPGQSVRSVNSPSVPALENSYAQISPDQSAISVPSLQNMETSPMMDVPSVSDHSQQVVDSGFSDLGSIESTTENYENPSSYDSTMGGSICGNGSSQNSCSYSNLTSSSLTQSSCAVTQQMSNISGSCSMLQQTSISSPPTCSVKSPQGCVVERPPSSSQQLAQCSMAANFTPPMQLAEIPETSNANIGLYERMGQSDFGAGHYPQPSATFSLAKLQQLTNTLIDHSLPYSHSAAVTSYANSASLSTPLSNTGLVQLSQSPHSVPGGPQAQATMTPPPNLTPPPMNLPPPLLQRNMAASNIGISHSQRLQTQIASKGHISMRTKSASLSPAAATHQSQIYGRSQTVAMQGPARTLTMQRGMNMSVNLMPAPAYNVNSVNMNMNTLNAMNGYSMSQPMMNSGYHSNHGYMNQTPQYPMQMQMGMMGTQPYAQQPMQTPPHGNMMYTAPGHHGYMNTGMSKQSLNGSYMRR
Kind of experiment: KATs acetyltransferase enzyme activity assay (TR-FRET), KAT6B. The note with it: Biotin-H3 (1-21) and AcCOA, 90 minutes at room temperature. The format is biochemical. As for the experimental part: (§1) I. KATs acetyltransferase enzyme activity assay
(§2) • 1. The inhibitory effect of compounds on the acetyltransferase activity of KATs was evaluated using the Time-Resolved Fluorescence Resonance Energy Transfer (TR-FRET) assay. The assay was conducted in 384-well plates using Tris-HCl buffer. • 2. Compounds were diluted in DMSO and transferred to 384-well plates. Enzyme solutions (KAT6: active motif (kit), 81223; KAT6B: active motif, 81224; KAT5: SignalChem, K314-380G; KAT7: ICE, S2210F-H21HF; KAT8: Active motif, 81225) were added and the mixture was incubated at room temperature for 15 minutes. • 3. Subsequently, 2.5 µL of a mixture containing KAT6A/KAT6B: Biotin-H3 (1-21, Genscript, C6829GL060) or KAT5/7/8: Bio-H4 (1-25, Genscript, C736BGL100) AcCOA (Sigma, A2056) was added, and the reaction proceeded at room temperature for 90 minutes. • 4. After the reaction, a detection mixture containing Europium-anti-acetyl-Histone H4 Lysine (H4Kac pan) Antibody (Perkin Elmer, TRF0412) and LANCE Ultra ULight™-Streptavidin in LANCE™ Detection buffer (10x) (Perkin Elmer, CR97-100) was added, followed by incubation at room temperature for 60 minutes. • 5. HTRF signals were measured using a BMG PHERAstar FSX (Ratio: 665nm/620nm). IC50 values were calculated by nonlinear regression using a four-parameter logistic equation in GraphPad Prism 8 software.
In general terms: In TR-FRET formats the signal depends on donor and acceptor labels being close together.

The test system of experiment [3] is ZR-75-1 H3K23 Acetylation. Kind of experiment: Histone H3 acetylation assay (H3K23 acetylation in ZR-75-1 cells). In kind it is cell-based. The note with it: Homo sapiens, 72 hours incubation, Odyssey CLx fluorescence, read-out: ZR-75-1 H3K23 Acetylation Inhibition IC50. As for the experimental part:
III. Histone H3 acetylation assay
• 1. ZR-75-1 cells were seeded at 5000 cells/40 µL per well in 384-well plates and cultured overnight in an incubator at 37°C & 5% CO2. • 2. 40 nL of serially diluted compounds were added to the 384-well plates, followed by further incubation for 72 hours. • 3. The supernatant was discarded, and 8 w/v% paraformaldehyde (final concentration was 4 w/v%) was added directly to the wells to fix the cells at room temperature. • 4. After washing twice with PBS, a permeabilization agent (40 µL of methanol) was added and incubated for 10 minutes to permeabilize the cell membranes. • 5. After washing twice with PBS, a blocking buffer was added and incubated at room temperature for 1 hour for blocking. • 6. The blocking buffer was discarded, and 20 µL of primary antibodies (recombinant Anti-Histone H3 (acetyl K23) antibody and Anti-Histone H4 antibody) diluted in blocking buffer (1:1000 by volume dilution) were added, followed by incubation at 4°C overnight. • 7. After washing three times with PBST (0.05 vol% Tween-20 in PBS), 20 µL of fluorescent secondary antibodies (IRDye 680RD Goat anti-MOUSE, Licor, 926-68070; IRDye 800CW Goat anti-Rabbit, Licor, 926-32211) diluted in blocking buffer (1:2000 by volume dilution) were added, followed by incubation at room temperature, protected from light, for 1 hour. Then, the plates were washed three times with PBST. • 8. Scanning was performed using an Odyssey CLx, and the fluorescence signal value for each well was quantified. IC50 values were calculated by nonlinear regression using a four-parameter logistic equation in GraphPad Prism 8 software.

Experiment [4] has as its target T2, KAT6A (Homo sapiens, UniProt Q92794).
T2 construct: purchased Active Motif 81223
Kind of experiment: KATs acetyltransferase enzyme activity assay (TR-FRET), KAT6A. The format is biochemical. To be noted: Biotin-H3 (1-21) and AcCOA, 90 minutes at room temperature. As for the experimental part: as §1
as §2, with “Enzyme solutions (KAT6: active motif (kit), 81223; KAT6B: active motif, 81224; KAT5: SignalChem, K314-380G; KAT7: ICE, S2210F-H21HF; KAT8: Active motif, 81225) were added and the mixture was incubated at room temperature for 15 minutes. • 3.” left out, “HTRF signals were measured using a BMG PHERAstar FSX (Ratio: 665nm/620nm).” left out

T2 sequence (Q92794 488-778 limits assumed): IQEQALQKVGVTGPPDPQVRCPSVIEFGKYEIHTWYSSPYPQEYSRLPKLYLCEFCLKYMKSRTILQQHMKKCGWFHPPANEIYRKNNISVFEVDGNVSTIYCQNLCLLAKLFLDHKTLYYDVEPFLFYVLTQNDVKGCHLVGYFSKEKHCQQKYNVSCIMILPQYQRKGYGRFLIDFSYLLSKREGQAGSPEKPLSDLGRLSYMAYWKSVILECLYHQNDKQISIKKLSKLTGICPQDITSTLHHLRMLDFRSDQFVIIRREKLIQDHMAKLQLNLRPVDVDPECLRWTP

On to `COc1cc2c(cc1S(=O)(=O)Nc1noc3cc(Cn4cccn4)cc(OC)c13)C1CC1CO2` (centres unmarked) [Compound 6, N-(6-((1H-Pyrazol-1-yl)methyl)-4-methoxybenzo[d]isoxazol-3-yl)-5-methoxy-1,1a,2,7b-tetrahydrocyclopropa[c] chromene-6-sulfonamide], for which the IC50 came to 0.6 nM in experiment [1], 11.8 nM in experiment [2], 5.3 nM in experiment [3] and 1.3 nM in experiment [4].

Take `CCc1c(Cn2cccn2)cc2onc(NS(=O)(=O)c3c(OC)ccc4c3OCC43CC3)c2c1OC` [Compound 28, N-(6-((1H-Pyrazol-1-yl)methyl)-5-ethyl-4-methoxybenzo[d]isoxazol-3-yl)-6-methoxy-2 H-spiro[benzofuran-3,1'-cyclopropane]-7-sulfonamide]: the IC50 in experiment [1] turned out to be 16.6 nM; in experiment [2] it was 12.3 nM; in experiment [3] it was 37.7 nM; in experiment [4], 2.2 nM.

As for `COc1cc2c(cc1S(=O)(=O)Nc1noc3cc(Cn4cccn4)cc(OC)c13)OCCOC2` [Compound 8], the IC50 in experiment [1] amounted to 4.2 nM; in experiment [2] it was 40.8 nM; in experiment [3], 10.3 nM; in experiment [4], 2.7 nM.

In the case of `COc1ccc2c(c1S(=O)(=O)Nc1noc3cc(Cn4cccn4)c4c(c13)OCC4)OCCCO2` [Compound 35, N-(4-((1H-Pyrazol-1-yl)methyl)-2,3-dihydrobenzofuro[7,6-d]isoxazol-8-yl)-7-methoxy-3,4-dihydro-2H-benzo[b][1,4]dioxepine-6-sulfonamide], the IC50 in experiment [1] is 3.3 nM; in experiment [2], 45.9 nM; in experiment [3], 15 nM; in experiment [4], 4.3 nM.

Turning to `COc1ccc2c(c1S(=O)(=O)Nc1noc3cc(Cn4cccn4)c(F)c(OC)c13)OCCCO2` [Compound 29, N-(6-((1H-Pyrazol-1-yl)methyl)-5-fluoro-4-methoxybenzo[d]isoxazol-3-yl)-7-methoxy-3,4-dihydro-2H-benzo[b][1,4]dioxepine-6-sulfonamide], the IC50 in experiment [1] amounted to 0.6 nM; in experiment [2] it was 23.3 nM; in experiment [3], 4.6 nM; in experiment [4], 3 nM.

For `COc1ccc2c(c1S(=O)(=O)Nc1noc3cc(Cn4cccn4)c(OC)c(C)c13)OCC21CC1` [Compound 39, N-(6-((1H-Pyrazol-1-yl)methyl)-5-methoxy-4-methylbenzo[d]isoxazol-3-yl)-6-methoxy-2H-spiro[benzofuran-3,1'-cyclopropane]-7-sulfonamide], the IC50 in experiment [1] turned out to be 2.6 nM; in experiment [2] it was 37.6 nM; in experiment [3], 23.7 nM; in experiment [4], 2.2 nM.

For the compound `COc1cc2c(NS(=O)(=O)c3c(OC)ccc4c3OCC3CC43)noc2cc1Cn1cccn1` (single isomer, unassigned) [Compound 33], the IC50 in experiment [1] was 0.03 nM; in experiment [2], 1.2 nM; in experiment [3], 0.2 nM; in experiment [4] it was 1.1 nM.

On to `COc1ccc2c(c1S(=O)(=O)Nc1noc3cc(Cn4cccn4)c4c(c13)OCC4)OCC21CC1` [Compound 36, N-(4-((1H-Pyrazol-1-yl)methyl)-2,3-dihydrobenzofuro[7,6-d]isoxazol-8-yl)-6-methoxy-2H-spiro[benzofuran-3,1'-cyclopropane]-7-sulfonamide], for which the IC50 in experiment [1] is 0.4 nM; in experiment [2], 8 nM; in experiment [3], 3.7 nM; in experiment [4], 1.7 nM.

As for `COc1ccc2c(c1S(=O)(=O)Nc1noc3cc(Cn4cccn4)c(F)c(OC)c13)OCC1CC21` (single isomer, unassigned) [Compound 30-P1], the IC50 in experiment [1] is 0.08 nM; in experiment [2] it was 1.4 nM; in experiment [3], 0.3 nM; in experiment [4] it was 1.4 nM.

As to `CCc1c(Cn2cccn2)cc2onc(NS(=O)(=O)c3c(OC)ccc4c3OCC3CC43)c2c1OC` (centres unmarked) [Compound 27, N-(6-((1H-Pyrazol-1-yl)methyl)-5-ethyl-4-methoxybenzo[d]isoxazol-3-yl)-5-methoxy-1,1a,2,7b-tetrahydrocyclopropa[c]chromene-4-sulfonamide], the IC50 was determined as 11.5 nM in experiment [1], 8.9 nM in experiment [2], 27.1 nM in experiment [3] and 1.3 nM in experiment [4].

With `COc1ccc2c(c1S(=O)(=O)Nc1noc3cc(Cn4cccn4)cc(OC)c13)OCCCN2C` [Compound 41, N-(6-((1H-Pyrazol-1-yl)methyl)-4-methoxybenzo[d]isoxazol-3-yl)-8-methoxy-5-methyl-2,3,4,5-tetrahydrobenzo[b][1,4]oxazepine-9-sulfonamide], the IC50 in experiment [1] was 4.8 nM; in experiment [2], 97.5 nM; in experiment [3], 20.2 nM; in experiment [4], 8.9 nM.

On to `COc1ccc2c(c1S(=O)(=O)Nc1noc3cc(Cn4cccn4)cc(OC)c13)OC[C@H]1C[C@@H]21` [Compound 5-P1, (1aS,7bR)-N-(6-((1H-Pyrazol-1-yl)methyl)-4-methoxybenzo[d]isoxazol-3-yl)-5-methoxy-1,1a,2,7b-tetrahydrocyclopropa[c]chromene-4-sulfonamide], for which the IC50 was 0.3 nM in experiment [1], 11.1 nM in experiment [2], 1.9 nM in experiment [3] and 2.5 nM in experiment [4].

`COc1ccc2c(c1S(=O)(=O)Nc1noc3cc(Cn4cccn4)c(F)cc13)OCCCO2` [Compound 12, N-(6-((1H-Pyrazol-1-yl)methyl)-5-fluorobenzo[d]isoxazol-3-yl)-7-methoxy-3,4-dihydro-2H-benzo [b] [1,4] dioxepine-6-sulfonamide]: the IC50 in experiment [1] came out at 1.4 nM; in experiment [2] it was 40 nM; in experiment [3], 4.5 nM; in experiment [4], 6.5 nM.

Regarding `COc1ccc2c(c1S(=O)(=O)Nc1noc3cc(Cn4cccn4)c(OC)c(C)c13)OCC1CC21` (centres unmarked) [Compound 40, N-(6-((1H-Pyrazol-1-yl)methyl)-5-methoxy-4-methylbenzo[d]isoxazol-3-yl)-5-methoxy-1,1a,2,7b-tetrahydrocyclopropa[c]chromene-4-sulfonamide], the IC50 is 1.6 nM in experiment [1], 12.9 nM in experiment [2], 12.4 nM in experiment [3] and 1.7 nM in experiment [4].
